Results published in PubChem BioAssay AID248 (DTP/NCI, 2004).
Several values for one entry are separate records, joined by “and”; a condition that tells them apart may be missing. Equal entries are not always repeated. Inconclusive results and toxic doses are left out.

Test system: L1210 leukemia ip in BDF1 mice, survival T/C
Assay: NCI In Vivo Anticancer Drug Screen. Data for tumor model L1210 Leukemia (intraperitoneal) in B6D2F1 (BDF1) mice
Settings: endpoint: mean survival time, higher = longer survival
In short: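 Tumor was transplanted into mice, which were then dosed with test compound or vehicle alone. Survival was recorded for each group, and the treated figure was expressed relative to the control figure.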

NC(=S)N/N=C/c1ccc(O)cn1
T/C (dose: 3.13 mg/kg/injection, schedule: Q03HX024 (ip), vehicle: Klucel (hydroxypropylcellulose) (HPC)): 120 % of control | T/C (dose: 3.13 mg/kg/injection, schedule: Q03HX024 (ip), vehicle: other): 120 % of control | T/C (dose: 3.13 mg/kg/injection, schedule: Q03HX024 (ip), vehicle: saline): 113 % of control | T/C (dose: 6.25 mg/kg/injection, schedule: Q03HX024 (ip), vehicle: other): 106 % of control | T/C (dose: 9.5 mg/kg/injection, schedule: Q01DX005 (iv), vehicle: other): 104 % of control | T/C (dose: 11.0 mg/kg/injection, schedule: Q03HX032 (ip), vehicle: saline with Tween-80): 123 % of control | T/C (dose: 12.5 mg/kg/injection, schedule: Q03HX024 (ip), vehicle: other): 106 % of control | T/C (dose: 12.5 mg/kg/injection, schedule: Q03HX024 (ip), vehicle: saline): 159 % of control | T/C (dose: 19.0 mg/kg/injection, schedule: Q01DX005 (iv), vehicle: other): 111 % of control | T/C (dose: 25.0 mg/kg/injection, schedule: Q01DX015 (ip), vehicle: carboxymethylcellulose (CMC)): 158 % of control | T/C (dose: 33.0 mg/kg/injection, schedule: Q## X008 (ip), vehicle: other): 124 % of control | T/C (dose: 33.0 mg/kg/injection, schedule: Q## X016 (ip), vehicle: other): 122 % of control | T/C (dose: 37.5 mg/kg/injection, schedule: Q01DX005 (ip), vehicle: other): 159 % of control | T/C (dose: 40.0 mg/kg/injection, schedule: Q06HX016 (ip), vehicle: Klucel (hydroxypropylcellulose) (HPC)): 154 % of control | T/C (dose: 44.0 mg/kg/injection, schedule: Q03HX032 (ip), vehicle: saline with Tween-80): 159 % of control | T/C (dose: 50.0 mg/kg/injection, schedule: Q01DX001 (ip), vehicle: saline): 114 % of control | T/C (dose: 50.0 mg/kg/injection, schedule: Q01DX009 (oral), vehicle: carboxymethylcellulose (CMC)): 120 % of control | T/C (dose: 50.0 mg/kg/injection, schedule: Q03HX024 (ip), vehicle: other): 151 % of control | T/C (dose: 50.0 mg/kg/injection, schedule: Q03HX024 (ip), vehicle: saline): 151 % of control | T/C (dose: 62.0 mg/kg/injection, schedule: Q03HX032 (ip), vehicle: carboxymethylcellulose (CMC)): 118 % of control | T/C (dose: 66.0 mg/kg/injection, schedule: Q03HX032 (ip), vehicle: saline with Tween-80): 102 % of control and 116 % of control | T/C (dose: 75.0 mg/kg/injection, schedule: Q03HX008 (ip), vehicle: alkali diluted with saline): 156 % of control | T/C (dose: 93.0 mg/kg/injection, schedule: Q03HX032 (ip), vehicle: carboxymethylcellulose (CMC)): 96 % of control | T/C (dose: 100.0 mg/kg/injection, schedule: Q01DX001 (ip), vehicle: saline): 120 % of control | T/C (dose: 100.0 mg/kg/injection, schedule: Q01DX001 (oral), vehicle: other): 106 % of control | T/C (dose: 100.0 mg/kg/injection, schedule: Q01DX009 (oral), vehicle: other): 121 % of control | T/C (dose: 100.0 mg/kg/injection, schedule: Q03HX024 (ip), vehicle: saline): 104 % of control | T/C (dose: 100.0 mg/kg/injection, schedule: Q04DX003 (ip), vehicle: alkali diluted with saline): 111 % of control | T/C (dose: 100.0 mg/kg/injection, schedule: Q## X002 (oral), vehicle: other): 98 % of control | T/C (dose: 100.0 mg/kg/injection, schedule: Q## X003 (oral), vehicle: other): 108 % of control | T/C (dose: 100.0 mg/kg/injection, schedule: Q## X008 (oral), vehicle: other): 101 % of control | T/C (dose: 100.0 mg/kg/injection, schedule: Q## X016 (oral), vehicle: other): 97 % of control | T/C (dose: 100.0 mg/kg/injection, schedule: Q## X024 (oral), vehicle: other): 101 % of control | T/C (dose: 150.0 mg/kg/injection, schedule: Q01DX001 (ip), vehicle: alkali diluted with saline): 104 % of control | T/C (dose: 150.0 mg/kg/injection, schedule: Q01DX001 (ip), vehicle: other): 118 % of control | T/C (dose: 150.0 mg/kg/injection, schedule: Q03HX024 (ip), vehicle: saline): 152 % of control | T/C (dose: 150.0 mg/kg/injection, schedule: Q08DX002 (ip), vehicle: alkali diluted with saline): 102 % of control | T/C (dose: 150.0 mg/kg/injection, schedule: Q## X002 (ip), vehicle: other): 114 % of control | T/C (dose: 150.0 mg/kg/injection, schedule: Q## X016 (ip), vehicle: other): 153 % of control | T/C (dose: 200.0 mg/kg/injection, schedule: Q01DX001 (oral), vehicle: other): 103 % of control | T/C (dose: 200.0 mg/kg/injection, schedule: Q01DX009 (ip), vehicle: saline): 119 % of control | T/C (dose: 200.0 mg/kg/injection, schedule: Q01DX009 (oral), vehicle: carboxymethylcellulose (CMC)): 157 % of control | T/C (dose: 200.0 mg/kg/injection, schedule: Q04DX003 (ip), vehicle: alkali diluted with saline): 112 % of control | T/C (dose: 200.0 mg/kg/injection, schedule: Q## X002 (oral), vehicle: other): 104 % of control | T/C (dose: 200.0 mg/kg/injection, schedule: Q## X003 (oral), vehicle: other): 112 % of control
